According to US11433140B2, “Specific antibody drug conjugates (ADCs) having KSP inhibitors” (Bayer Pharma Aktiengesellschaft, priority 2016, dated 2022):
Where a name gives a salt, the structure may show the parent alone.

Experiments:
[1] = test system: SKHep-1; assay: MTT assay, cytotoxic effect on SK-HEP-1; type: cell-based, human; conditions: Table 2, metabolites, MTT after 96 h
Experimental: SK-HEP-1: human liver cell cancer line, ATCC No. HTB-52, standard medium: MEM with Earle's salts+Glutamax I (Invitrogen 41090)+10% heat inactivated FCS (from Gibco, No. 10500-064); TWEAKR-positive
The cells were cultivated by the standard method, with the growth media specified in section C-1. The test was carried out by detaching the cells with a solution of Accutase in PBS (from Biochrom AG #L2143), pelletizing, resuspending in culture medium, counting and sowing into a 96-well culture plate with white bottom (from Costar #3610) (NCI H292: 2500 cells/well; SK-HEP-1: 1000 cells/well; KPL-4: 1200 cells/well; in total volume 100 μl). The cells were then incubated in an incubator at 37° C. and 5% carbon dioxide. After 48 h, the medium was replaced. The antibody drug conjugates in 10 μl of culture medium in concentrations from 10^−5M to 10^−13M were then pipetted to the cells (in triplicate), and the assay was then incubated in an incubator at 37° C. and 5% carbon dioxide. The suspension cells were counted and sown into a 96-well culture plate with white bottom (from Costar #3610) (#3610) (MOLM-13: 2000 cells/well; NB4: 7000 cells/well; MV-4-11: 5000 cells/well in a total volume of 100 μl). After 6 hours of incubation at 37° C. and 5% carbon dioxide, the medium was changed and the antibody-drug conjugates or metabolites were added by pipette in 10 μl of culture medium in concentrations of 10^−5M to 10^−13M to the cells (triplicates) in 90 μl. The batch was incubated in an incubator at 37° C. and 5% carbon dioxide. After 96 h, the cell proliferation was detected using the MTT assay (ATCC, Manassas, Va., USA, catalogue No. 30-1010K). To this end, the MTT reagent was incubated with the cells for 4 h, followed by lysis of the cells overnight by addition of the detergent. The dye formed was detected at 570 nm (Infinite M1000 pro, Tecan). The measured data were used to calculate the IC50 of the growth inhibition using the DRC (dose response curve). […]

[2] = test system: Caco-2 cells; assay: Cell permeability, flux assay using Caco-2 cells; type: in vitro ADME; conditions: for Papp (B-A): Caco-2, basal to apical, 2 hours
Experimental: The cell permeability of a substance can be investigated by means of in vitro testing in a flux assay using Caco-2 cells [M. D. Troutman and D. R. Thakker, Pharm. […] For this purpose, the cells were cultured for 15-16 days on 24-well filter plates. For the determination of permeation, the respective test substance was applied in a HEPES buffer to the cells either apically (A) or basally (B) and incubated for 2 hours. After 0 hours and after 2 hours, samples were taken from the cis and trans compartments. The samples were separated by HPLC (Agilent 1200, Böblingen, Germany) using reverse phase columns. The HPLC system was coupled via a Turbo Ion Spray Interface to a Triple Quadropole mass spectrometer API 4000 (AB SCIEX Deutschland GmbH, Darmstadt, Germany).
Of critical importance for toxophores which are released intracellularly is the permeability from B to A [Papp (B-A)] and the ratio of Papp (B-A) to Papp (A-B) (efflux ratio): The lower this permeability, the slower the active and passive transport processes of the substance through the monolayer of Caco-2 cells. If the efflux ratio, moreover, gives no indications as to active transport, the substance, following intracellular release, can remain in the cell for longer. As a consequence, the time available for interaction with the biochemical target (here: kinesin spindle protein KSP/Eg5) also increases.

[3] = test system: NCI-H292; assay: MTT assay, cytotoxic effect on NCI-H292; type: cell-based, human; conditions: Table 2, metabolites, MTT after 96 h
Experimental: NCI-H292: human mucoepidermoid lung carcinoma cells, ATCC-CRL-1848, standard medium: RPMI 1640 (Biochrom; #FG1215, stab. glutamine)+10% FCS (Sigma; #F2442), TWEAKR-positive; EGFR-positive,
The cells were cultivated by the standard method, with the growth media specified in section C-1. The test was carried out by detaching the cells with a solution of Accutase in PBS (from Biochrom AG #L2143), pelletizing, resuspending in culture medium, counting and sowing into a 96-well culture plate with white bottom (from Costar #3610) (NCI H292: 2500 cells/well; SK-HEP-1: 1000 cells/well; KPL-4: 1200 cells/well; in total volume 100 μl). The cells were then incubated in an incubator at 37° C. and 5% carbon dioxide. After 48 h, the medium was replaced. The antibody drug conjugates in 10 μl of culture medium in concentrations from 10^−5M to 10^−13M were then pipetted to the cells (in triplicate), and the assay was then incubated in an incubator at 37° C. and 5% carbon dioxide. The suspension cells were counted and sown into a 96-well culture plate with white bottom (from Costar #3610) (#3610) (MOLM-13: 2000 cells/well; NB4: 7000 cells/well; MV-4-11: 5000 cells/well in a total volume of 100 μl). After 6 hours of incubation at 37° C. and 5% carbon dioxide, the medium was changed and the antibody-drug conjugates or metabolites were added by pipette in 10 μl of culture medium in concentrations of 10^−5M to 10^−13M to the cells (triplicates) in 90 μl. The batch was incubated in an incubator at 37° C. and 5% carbon dioxide. After 96 h, the cell proliferation was detected using the MTT assay (ATCC, Manassas, Va., USA, catalogue No. 30-1010K). To this end, the MTT reagent was incubated with the cells for 4 h, followed by lysis of the cells overnight by addition of the detergent. The dye formed was detected at 570 nm (Infinite M1000 pro, Tecan). The measured data were used to calculate the IC50 of the growth inhibition using the DRC (dose response curve). The proliferation of cells which were not treated with test substance but were otherwise identically treated was defined as the 100% figure.

[4] = test system: MOLM-13; assay: MTT assay, cytotoxic effect on MOLM-13; type: cell-based, human; conditions: Table 2; metabolites; MTT after 96 h
Experimental: (§1) C-1a: Determination of the Cytotoxic Effect of the ADCs Directed Against CD123 and CXCR5
(§2) The analysis of the cytotoxic effect of the exemplary ADCs was carried out with various cell lines:
MOLM-13: human acute monocytic leukaemia cells (AML-M5a), DSMZ, No. ACC 554, standard medium: RPMI 1640 (from Gibco; #21875-059, stab. L-glutamine)+20% heat inactivated FCS (Gibco, No. 10500-064); CD123-positive.
(§3) The cells were cultivated by the standard method, with the growth media specified in section C-1. The test was carried out by detaching the cells with a solution of Accutase in PBS (from Biochrom AG #L2143), pelletizing, resuspending in culture medium, counting and sowing into a 96-well culture plate with white bottom (from Costar #3610) (NCI H292: 2500 cells/well; SK-HEP-1: 1000 cells/well; KPL-4: 1200 cells/well; in total volume 100 μl). […] The suspension cells were counted and sown into a 96-well culture plate with white bottom (from Costar #3610) (#3610) (MOLM-13: 2000 cells/well; NB4: 7000 cells/well; MV-4-11: 5000 cells/well in a total volume of 100 μl). […] After 96 h, the cell proliferation was detected using the MTT assay (ATCC, Manassas, Va., USA, catalogue No. 30-1010K). […] The dye formed was detected at 570 nm (Infinite M1000 pro, Tecan). The measured data were used to calculate the IC50 of the growth inhibition using the DRC (dose response curve). […]

[5] = biological target: T1, human kinesin spindle protein KSP/Eg5 (Homo sapiens, UniProt P52732); assay: Inhibition of the kinesin spindle protein KSP/Eg5 (ATPase activity, malachite green); type: biochemical; conditions: motor domain 10 nM, microtubuli, ATP 500 μM, 2 h RT
T1 construct: The motor domain of the human kinesin spindle protein KSP/Eg5; purchased tebu-bio/Cytoskeleton Inc 027EG01-XL
T1 sequence (P52732 18-359 limits assumed): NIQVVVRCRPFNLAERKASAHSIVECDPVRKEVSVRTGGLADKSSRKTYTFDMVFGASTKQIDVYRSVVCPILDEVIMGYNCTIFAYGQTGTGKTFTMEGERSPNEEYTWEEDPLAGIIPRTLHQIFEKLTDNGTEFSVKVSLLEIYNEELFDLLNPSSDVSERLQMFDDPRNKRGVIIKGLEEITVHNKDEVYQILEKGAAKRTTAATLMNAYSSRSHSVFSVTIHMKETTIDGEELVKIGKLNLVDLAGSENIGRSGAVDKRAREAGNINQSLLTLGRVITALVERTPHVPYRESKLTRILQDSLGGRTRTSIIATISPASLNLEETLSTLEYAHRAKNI
Experimental: The motor domain of the human kinesin spindle protein KSP/Eg5 (tebu-bio/Cytoskeleton Inc, No. 027EG01-XL) was incubated in a concentration of 10 nM with microtubuli (bovine or porcine, tebu-bio/Cytoskeleton Inc) stabilized with 50 μg/ml taxol (Sigma No. T7191-5MG) for 5 min at RT in 15 mM PIPES, pH 6.8 (5 mM MgCl2 and 10 mM DTT, Sigma). […] Incubation was at RT for 2 h. ATPase activity was detected by detecting the inorganic phosphate formed using malachite green (Biomol). […] The positive controls used were monastrol (Sigma, M8515-1 mg) and ispinesib (AdooQ Bioscience A10486). The individual data of the dose-activity curve are eight-fold determinations. The IC50 values are means of two independent experiments.

[6] = test system: MV-4-11; assay: MTT assay, cytotoxic effect on MV-4-11; type: cell-based, human; conditions: Table 2; metabolites; MTT after 96 h
Experimental: as §1, §2
MV-4-11: human biphenotypic B myelomonocytic leukaemia cells obtained from peripheral blood, ATCC-CRL-9591, standard medium: IMDM (ATCC: 30-2005), +10% heat inactivated FCS (Gibco, No. 10500-064); CD123-positive
as §3

[7] = test system: KPL-4; assay: MTT assay, cytotoxic effect on KPL-4; type: cell-based, human; conditions: Table 2; metabolites; MTT after 96 h
Experimental: KPL4: human breast cancer cell line, Bayer Pharma AG (identity checked and confirmed on 19 Jul. 2012 at DSMZ), standard medium: RPMI 1640 (from Gibco; #21875-059, stab. L-glutamine)+10% heat inactivated FCS (Gibco, No. 10500-064); HER2-positive.
The cells were cultivated by the standard method, with the growth media specified in section C-1. The test was carried out by detaching the cells with a solution of Accutase in PBS (from Biochrom AG #L2143), pelletizing, resuspending in culture medium, counting and sowing into a 96-well culture plate with white bottom (from Costar #3610) (NCI H292: 2500 cells/well; SK-HEP-1: 1000 cells/well; KPL-4: 1200 cells/well; in total volume 100 μl). The cells were then incubated in an incubator at 37° C. and 5% carbon dioxide. After 48 h, the medium was replaced. […] The suspension cells were counted and sown into a 96-well culture plate with white bottom (from Costar #3610) (#3610) (MOLM-13: 2000 cells/well; NB4: 7000 cells/well; MV-4-11: 5000 cells/well in a total volume of 100 μl). […] After 96 h, the cell proliferation was detected using the MTT assay (ATCC, Manassas, Va., USA, catalogue No. 30-1010K). […] The dye formed was detected at 570 nm (Infinite M1000 pro, Tecan). The measured data were used to calculate the IC50 of the growth inhibition using the DRC (dose response curve). […]

Structure (SMILES) | IC50 ([1]; Homo sapiens, SK-HEP1) | Papp (B-A) [2] | IC50 ([3]; Homo sapiens, NCI-H292) | IC50 [4] | IC50 [5] | IC50 [1] | Efflux ratio compared with the reference metabolites ([2]; Caco-2, in words) | Transport from the cell compared with the reference metabolites ([2]; Caco-2, in words) | Efflux ratio ([2]; Caco-2, ratio of Papp (B-A) to Papp (A-B)) | IC50 [6] | IC50 [7] | IC50 [3]
CC(C)(C)[C@H](c1cc(-c2cc(F)ccc2F)cn1Cc1ccccc1)N(CC[C@H](N)C(=O)NCCNC(=O)CNC(=O)CC(SC[C@H](N)C(=O)O)C(=O)O)C(=O)CO (mixture of isomers) [Example Rm1, 4-[(2-{[2-({(2S)-2-Amino-4-[{(1R)-1-[1-benzyl-4-(2,5-difluorophenyl)-1H-pyrrol-2-yl]-2,2-dimethylpropyl}(glycoloyl)amino]butanoyl}amino)ethyl]amino}-2-oxoethyl)amino]-2-{[(2R)-2-amino-2-carboxyethyl]sulfanyl}-4-oxobutanoic Acid Trifluoroacetic Acid Salt] | 19 nM | 1.3 ×10⁻⁶ cm/s | 63.6 nM |  |  |  |  |  |  |  |  | 
CC(C)(C)[C@H](c1cc(-c2cc(F)ccc2F)cn1Cc1ccccc1)N(CC[C@H](N)C(=O)NCCNC(=O)CNC(=O)C(CC(=O)O)SC[C@H](N)C(=O)O)C(=O)CO (mixture of isomers) [Example Rm2, 4-[(2-{[2-({(2S)-2-Amino-4-[{(1R)-1-[1-benzyl-4-(2,5-difluorophenyl)-1H-pyrrol-2-yl]-2,2-dimethylpropyl}(glycoloyl)amino]butanoyl}amino)ethyl]amino}-2-oxoethyl)amino]-3-{[(2R)-2-amino-2-carboxyethyl]sulfanyl}-4-oxobutanoic Acid Trifluoroacetic Acid Salt] | 89 nM |  | 276 nM |  |  |  |  |  |  |  |  | 
CC(C)(C)[C@H](c1cc(-c2cc(F)ccc2F)cn1Cc1ccccc1)N(CC[C@H](N)C(=O)NCCNC(=O)[C@@H](CCC(=O)O)NC(=O)CNC(=O)CC(SC[C@H](N)C(=O)O)C(=O)O)C(=O)CO.O=C(O)C(F)(F)F (stereo partly drawn) [Example M1, N-(3-{[(2R)-2-Amino-2-carboxyethyl]sulfanyl}-3-carboxypropanoyl)glycyl-N-[2-({(25)-2-amino-4-[{(1R)-1-[1-benzyl-4-(2,5-difluorophenyl)-1H-pyrrol-2-yl]-2,2-dimethylpropyl}(glycoloyl)amino]butanoyl}amino)ethyl]-D-alpha-glutamine trifluoroacetic Acid Salt] |  | 0.12 ×10⁻⁶ cm/s |  | 125 nM | 2.13 nM | 98.8 nM | reduced efflux ratio | reduced transport from the cell | 0.8 | 302 nM | 500 nM | 500 nM
